Laboratory results from patent US20160089319A1, “ACTIVES FOR STIMULATING DIFFERENTIATION OF KERATINOCYTES TO LIGHTEN HYPERPIGMENTED SKIN” (ELC MANAGEMENT LLC, priority 2014, published 2016).

System: basement membrane in hyperpigmented lesions
Experiment: Further studies by the inventors on morphology of the basement membrane in hyperpigmented lesions (results not shown)
Format: in vivo
Conditions: formulation containing the substance but no Phytofix

sodium ribonucleic acid
improvement of the morphology of the basement membrane: no improvement of the morphology of the basement membrane
